In ChEMBL document CHEMBL1155739, “New indole alkaloids from the bark of Nauclea orientalis” (J Nat Prod, 2001):
≈ marks a conversion by molar mass, not a printed value. Calls of active or inactive are those of the source. The calls are words filed in the database; no cut-off is given here.

What was measured:
Candida albicans = test: (§1) Inhibition of Candida albicans secreted aspartic protease
[1] = as §1

Row | Activity (Candida albicans) | IC50 [1] | SMILES
1 | inactive | – | C=C[C@@H]1C2=C[C@H]3c4[nH]c5ccccc5c4CCN3C(=O)C2=C(O)O[C@H]1O[C@@H]1O[C@H](CO)[C@@H](O)[C@H](O)[C@H]1O
2 | – | 6 ng/mL (≈ 8.75 nM) | CC(C)CC(=O)N[C@H](C(=O)N[C@H](C(=O)N[C@@H](CC(C)C)[C@@H](O)CC(=O)N[C@@H](C)C(=O)N[C@@H](CC(C)C)[C@@H](O)CC(=O)O)C(C)C)C(C)C [PEPSTATIN]
